Experimental findings from PMC10628858, “Investigation of new ferrocenyl-artesunate derivatives as antiparasitics” (Dalton Transactions (Cambridge, England : 2003), 2023) are described below.

The structures appear in SMILES notation. Like-named read-outs stand apart in the source and are kept apart here.

The term IC50 denotes the point on the concentration scale where inhibition reaches its midpoint.

Data set [1] concerns HEK293 cells. Briefly: MTT cell viability assay, HEK293. It is filed as cell-based, human. The following applies: for IC50: 48 h. As to the method:
(§1) To assess the cytotoxicity of the four compounds a MTT cell viability assay using human embryonic kidney (HEK293) and human prostatic (PNT1A) cell lines were performed. […] The long chain compounds C1 and C3 were also shown to be non-cytotoxic towards the HEK293 cell line.
(§2) The immortalised human prostatic epithelial cell line, PNT1A (Sigma Aldrich, 95012614) was cultured in RPMI-1640 containing 10% foetal calf serum (Life Technologies, South Africa). The human embryonic kidney cell line HEK293 (ATCC) was cultured in DMEM (Life Technologies, South Africa). Both cell lines were cultured at 37 °C under 5% CO2 with 1% penicillin and streptomycin. Cancer cell cytotoxicity was evaluated using the MTT viability assay according to our previous method.[49] Briefly, cells were seeded at a density of 3 × 10^3 cells per well in 96-well plates and allowed to settle overnight. A 100 mM stock of C1/C2 and a 50 mM stock solution of C3/C4 in DMSO was prepared from which dilutions were made. The compound was then added to the cells in triplicate to obtain the indicated concentrations and 0.1% DMSO. Controls included cells treated with […] DMSO alone. After 48 h, 10 μL of 5 mg mL^−1 MTT (3-(4,5-dimethylthiazol-2-yl)-2,5-diphenyltetrazolium bromide) (Sigma-Aldrich) was added, and incubated with the cells for 4 h, followed by addition of 100 μL 10% SLS, 0.01 M HCL. The plates were read at 595 nm on a Multiscan FC plate reader (Thermo Scientific) and the data was fitted to a variable slope dose–response curve using Graphpad prism v6 to obtain the cytotoxicity IC50. The assay was repeated independently three times where inhibition was observed.
A general note: Formazan colour is commonly taken as a measure of viable cells.

Data set [2] can be described thus: Aqueous stability (hydrolysis) by UV-Vis kinetic scan in 10% MeOH (aq). It is filed as physicochemical. As to the method:
Since biological systems are comprised of water, the behavior and stability of a drug in aqueous media is important. To determine the stability, each complex was dissolved in MeOH and then diluted to 10% MeOH (aq). The solutions were then monitored by UV-Vis spectroscopy using a kinetic scan in the range 190–1100 nm over 1 hour. […] Hydrolysis was also supported by RP-HPLC in which new peaks emerged corresponding to the starting ferrocene precursors, F2 and F4. […] […] The major difference being between C1/C2 and C3/C4 is the nature of the linkage either being an ester or an amide bond. It is expected that the hydrolysis of C2 would occur quicker due to the more labile nature of the ester bond.
UV-Vis studies were performed by dissolving each complex in methanol to a concentration of 1 mM. This was then diluted using distilled water in a 10% methanol/water mixture giving a final concentration of 100 μM. The complexes were then monitored using a kinetic scan between the range 190–1100 nm scanning each minute over the course of one hour. […]

In data set [3] the test system is T. gondii (ΔKu80::mNeonGreen). The experiment in a line: T. gondii growth inhibition assay (mNeonGreen fluorescence). It is filed as cell-based, Toxoplasma gondii. Particulars: three independent experiments in triplicate, ± SEM. As to the method:
[…]. The rate of hydrolysis of C2 and C4 is closely correlated to the activity seen against T. gondii, such that the more readily the complex separates into its constituents, parts the better the overall activity.
To further investigate whether the accumulation of ROS was implicated in the MoA, the growth inhibition studies were repeated in the presence of the ROS scavenger N-acetyl cysteine (NAC) (Table 5).
Growth inhibition assays were performed in black, clear-bottomed 96 well plates preseeded with Human foreskin fibroblasts (HFFs) as described previously.[48] ΔKu80:mNeonGreen T. gondii were counted using a hemeocytometer and media from the host-cell seeded plate was aspirated and replaced with either 200 μL of D3 or 200 μL of media + 5000 parasites per well. Infected cells were incubated for 2 hours at 37 °C with 5% CO2 to allow for invasion. Following this, the media was removed and replaced with 100 μL fresh media. 100 μL of media containing 100 μM of the indicated drug in sterile DMSO was added and serially diluted. The parasites were then incubated for four days at 37 °C with 5% CO2 then flourescense read using the PHERAstar microplate reader. After removal of background, fluorescence values were normalised to untreated and plotted. Data analysis and non-linear regression was performed in Prism.

Data set [4] can be described thus: Cyclic voltammetry (oxidation/reduction potentials). Particulars: Ag/AgCl electrode, scan rate 100 mV s^−1, 0.100 M [NBu4][PF6] in MeCN. It is filed as physicochemical.
The test system of data set [5] is T. gondii. Briefly: Determination of intracellular ROS levels with CellROX by flow cytometry. The following applies: 5 μM, 6 hours, 50 000 parasites, vs untreated. Type of data set: cell-based, Toxoplasma gondii. As to the method:
Since both ferrocene and artesunate are able to generate ROS, we attempted to quantify the intracellular ROS levels in the parasite using CellROX, a compound which fluoresces in the presence of ROS. Treatment with artesunate was included as positive control as previous studies have linked artesunate treatment to ROS accumulation.[44] The parasites were treated with 5 μM of complexes C1, C3 and C4, and incubated for 6 hours. […] Since T. gondii rely predominately on heme biosynthesis as opposed to incorporation of heme from host hemoglobin, the concentration of iron present in the parasite is lower.[45] But, by incorporating an iron center in the molecule the slower activation may be circumvented leading to quicker cell death and a decreased CellROX reading.
Fig. 5 CellROX fluorescence quantified by flow cytometry from 50 000 parasites. T. gondii were untreated (grey) or treated for 6 hours with 5 μM compounds (blue) or artesunate (red) as a positive control.
Intracellular parasites were treated with 5 μM of the drug and incubated at 37 °C with 5% CO2 for either 18 hours or 6 hours. The parasites were released from host cells by scraping and syringing followed by passing through 3 μm filters to remove host-cell debris. The parasites were spun down at 6000 RPM for 10 minutes and resuspended in 500 μL PBS. 100 μL of the parasite suspension was placed in a FACS tube and a stock solution of CellROX dye in PBS (1 : 125 dilution) was added to this. This was then incubated in the dark at 37 °C for 1 hour and then read using a BD Celesta. Parasites were gated on forward and side scatter and on mNeonGreen fluorescence and histograms of Cy5 signal presented. Data analysis was performed using Flowjo.
(In flow cytometry, cells or beads pass a laser one at a time.)

Data set [6] deals with PNT1A cells. The experiment in a line: MTT cell viability assay, PNT1A. Type of data set: cell-based, human. The following applies: 48 h. As to the method: as §1, §2
The mark [7] stands for this setting: no curve could be fitted within one hour.
[8] abbreviates: four days, in HFF host cells, read-out: IC50 against T. gondii.
Where [9] appears, read: with 5 mM NAC (ROS scavenger), read-out: IC50 + NAC against T. gondii.
[10] abbreviates: change in absorbance at 254 nm over one hour, ExpDec1 fit.

In the case of `CC1CCC2C(C)C(OC(=O)CCC(=O)NCCNC(=O)[c-]3cccc3)OC3OC4(C)CCC1C32OO4.[Fe+2].c1cc[cH-]c1` (stereo not drawn) [Compound C3], in data set [1], the “Cytotoxicity towards HEK293” value is given as “non-cytotoxic” and the concentration for half-maximal inhibition (IC50) is > 50000 nM. In data set [2] (setting [7]), the Half-life is listed as >1 h. The IC50 in data set [3] (setting [8]) was 1200 ± 64 nM. Also, the IC50 in data set [3] (setting [9]) was determined as 1500 ± 140 nM. Moreover, in data set [4], the “E 1/2” value is recorded as 0.616 V, the “E Ox” value is 0.660 V, the “E Red” value worked out at 0.571 V and the ΔE amounted to 0.0890 V. Also, the “Change in CellROX signal (intracellular ROS)” value (shortened to “Change in CellROX signal”) in data set [5] is given as “increase in intracellular ROS”. Besides, the half-inhibitory concentration (IC50) in data set [6] was > 50000 nM.
As to `CC1CCC2C(C)C(OC(=O)CCC(=O)OCCNC(=O)[c-]3cccc3)OC3OC4(C)CCC1C32OO4.[Fe+2].c1cc[cH-]c1` (stereo not drawn) [Compound C1], in data set [1], the “Cytotoxicity towards HEK293” value is “non-cytotoxic” and the IC50 was > 100000 nM. Moreover, the Half-life in data set [2] (setting [7]) is >1 h. The IC50 in data set [3] (setting [8]) stood at 680 ± 31 nM. Moreover, the IC50 in data set [3] (setting [9]) worked out at 830 ± 130 nM. In data set [4], the “E 1/2” value stood at 0.623 V, the “E Ox” value stood at 0.658 V, the “E Red” value amounted to 0.588 V and the ΔE was 0.0700 V. Also, the “Change in CellROX signal” value in data set [5] was “no change in CellROX signal”. Also, in data set [6], the IC50 is > 100000 nM.
In the case of `CC1CCC2C(C)C(OC(=O)CCC(=O)NC[c-]3cccc3)OC3OC4(C)CCC1C32OO4.[Fe+2].c1cc[cH-]c1` (stereo not drawn) [Compound C4], the midpoint of inhibition in data set [1], the IC50, lay at 36000 ± 2700 nM. Moreover, in data set [2] (setting [10]), the Half-life stood at 0.155 ± 0.0035 h and the “Rate constant (hydrolysis)” value is 0.074 ± 0.0016 min⁻¹. Moreover, in data set [3] (setting [8]), the IC50 stood at 600 ± 35 nM. For the same compound, the IC50 in data set [3] (setting [9]) is 1200 ± 179 nM. For the same compound, in data set [4], the “E 1/2” value is 0.364 V, the “E Ox” value was found to be 0.400 V, the “E Red” value came out at 0.327 V and the ΔE turned out to be 0.0730 V. In addition, the “Change in CellROX signal” value in data set [5] is “no change in CellROX signal”. Besides, in data set [6], the IC50 is > 50000 nM.
